Source: patent US8486996B2, “Aroylfuranes and aroylthiophenes” (Basilea Pharmaceutica AG, priority 2006, dated 2013)
Read-outs that look alike come from different tables or passages of the source.

How the values were obtained:
[1] = tested on: tumor cells; test: Mitochondrial membrane potential, JC-1 (read-out 48 h); type: cell-based; conditions: JC-1, 48 h
Outline: (§1)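 Tumor cells were treated with test compounds (adherent cells after 24 h of attachment, suspension cells immediately), medium holding up to 5% DMSO. After 48 h, JC-1 (2-5 μg/ml in added medium) was applied for 30 min. Fluorescence microscopy (FITC/TRITC filters) scored the fraction of cells with dissipated mitochondrial membrane potential as categories A-D.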

[2] = as above; type: cell-based; conditions: PBL, JC-1, 48 h
Outline: as §1

[3] = tested on: tumor cells; test: MTS proliferation assay (72 h read-out); type: cell-based
Outline: (§2)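 Tumour cells (1.5×10^3–10^4 per well) were seeded 24 h before compound addition, then exposed to 0.001–10 μM final compound for 72 h under culture conditions. MTS reagent was added for a further 3 h, absorbance was read at 492 nm, and results were binned into scores A–D.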

[4] = MTS proliferation assay (72 h read-out); type: cell-based; conditions: Homo sapiens, MRC5 cells
Outline: as §2

[5] = tested on: H460; test: Colony Forming Units (read-out 6 days), H460; type: cell-based, human; conditions: Homo sapiens, NCI-H460, 144 h, colonies containing more than 30 cells, read-out: Colony Forming Units, score based on IC50, H460
Outline: (§3)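 Cells seeded at 100-150 per well and left to attach for 48 h before compound addition (0.001 μM-3 μM; DMSO controls). Incubated 5-7 days under culture conditions; colonies of more than 30 cells counted by microscope.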

[6] = tested on: HeLa; test: Colony Forming Units (read-out 6 days), HeLa; type: cell-based, human; conditions: Homo sapiens, 144 h, colonies containing more than 30 cells, read-out: Colony Forming Units, score based on IC50, HeLa
Outline: as §3

[7] = tested on: tumor cells; test: Hoechst 33342 nuclear staining (48 h read-out); type: cell-based
Outline: (§4)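 Adherent cells pre-spread 24 h before dosing, suspension cells dosed at seeding; compounds at 0.001 μM-10 μM final, 48 h at culture conditions. Hoechst 33342 (2-5 μg/ml) added for 30 min, then fluorescence microscopy scoring of apoptotic nuclear fraction and apoptosis-specific morphology, reported as scores A-D.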

[8] = Hoechst 33342 nuclear staining (48 h read-out); type: cell-based
Outline: as §4

[9] = Homo sapiens, HeLa cells, read-out: Mitochondrial membrane potential (read-out 48 h) HeLa
[10] = Homo sapiens, Jurkat cells, read-out: Mitochondrial membrane potential (read-out 48 h) Jurkat
[11] = Homo sapiens, MCF7 cells, read-out: Mitochondrial membrane potential (read-out 48 h) MCF7
[12] = Jily cells, read-out: Mitochondrial membrane potential (read-out 48 h) Jily
[13] = Homo sapiens, HT-1080, HT1080 cells, read-out: MTS proliferation assay IC50, HT1080
[14] = Homo sapiens, HeLa cells, read-out: MTS proliferation assay IC50, HeLa
[15] = Homo sapiens, Jurkat cells, read-out: MTS proliferation assay IC50, Jurkat
[16] = Jily cells, read-out: MTS proliferation assay IC50, Jily
[17] = Homo sapiens, HeLa cells, read-out: Hoechst 33342 nuclear staining EC50, HeLa
[18] = Homo sapiens, Jurkat cells, read-out: Hoechst 33342 nuclear staining EC50, Jurkat
[19] = Jily cells, read-out: Hoechst 33342 nuclear staining EC50, Jily
[20] = Homo sapiens, MRC5 cells, read-out: Hoechst 33342 nuclear staining EC50, MRC5
[21] = PBL, read-out: Hoechst 33342 nuclear staining EC50, PBL

Row | Structure (SMILES) | EC50 [1, 9] | EC50 [1, 10] | EC50 [1, 11] | EC50 [1, 12] | EC50 [2] | melting point | IC50 [3, 13] | IC50 [3, 14] | IC50 [3, 15] | IC50 [3, 16] | IC50 [4] | IC50 [5] | IC50 [6] | EC50 [7, 17] | EC50 [7, 18] | EC50 [7, 19] | EC50 [8, 20] | EC50 [8, 21]
1 | CCOc1ccc(F)cc1C(=O)c1oc2nc(C)ccc2c1N [Example 29] | 0.01 to 0.1 µM | 0.01 to 0.1 µM | 0.01 to 0.1 µM | 0.01 to 0.1 µM | > 1 µM | 152 to 156 °C | < 0.01 µM | 0.01 to 0.1 µM | < 0.01 µM | < 0.01 µM | 0.01 to 0.1 µM | 0.01 to 0.1 µM | 0.01 to 0.1 µM | 0.01 to 0.1 µM | 0.01 to 0.1 µM | 0.01 to 0.1 µM | 0.1 to 1 µM | > 1 µM
2 | COc1ccc(OC(C)C)c(C(=O)c2oc3ccc(Cl)cc3c2N)c1 [Example 15] | 0.1 to 1 µM | 0.01 to 0.1 µM | 0.1 to 1 µM | 0.1 to 1 µM | > 1 µM | 131 to 132 °C | 0.01 to 0.1 µM | 0.1 to 1 µM | 0.01 to 0.1 µM | 0.01 to 0.1 µM | 0.01 to 0.1 µM | 0.01 to 0.1 µM | 0.01 to 0.1 µM | 0.1 to 1 µM | 0.01 to 0.1 µM | 0.01 to 0.1 µM | 0.1 to 1 µM | –
3 | CC(C)Oc1ccccc1C(=O)c1oc2ccc(Cl)cc2c1N [Example 9] | 0.1 to 1 µM | 0.01 to 0.1 µM | 0.1 to 1 µM | 0.1 to 1 µM | > 1 µM | 110 °C | 0.01 to 0.1 µM | 0.1 to 1 µM | 0.01 to 0.1 µM | 0.01 to 0.1 µM | 0.1 to 1 µM | 0.01 to 0.1 µM | 0.01 to 0.1 µM | 0.1 to 1 µM | 0.01 to 0.1 µM | 0.1 to 1 µM | 0.1 to 1 µM | –
4 | CCOc1ccc(F)cc1C(=O)c1oc2ccc(Cl)cc2c1N [Example 18] | < 0.01 µM | < 0.01 µM | < 0.01 µM | < 0.01 µM | > 1 µM | 132 to 134 °C | < 0.01 µM | < 0.01 µM | < 0.01 µM | < 0.01 µM | < 0.01 µM | < 0.01 µM | < 0.01 µM | < 0.01 µM | < 0.01 µM | < 0.01 µM | < 0.01 µM | > 1 µM
5 | CCCOc1ccc(OC)cc1C(=O)c1oc2ccc(Cl)cc2c1N [Example 14] | 0.01 to 0.1 µM | 0.01 to 0.1 µM | 0.01 to 0.1 µM | 0.01 to 0.1 µM | > 1 µM | 95 to 97 °C | 0.01 to 0.1 µM | 0.01 to 0.1 µM | < 0.01 µM | < 0.01 µM | 0.01 to 0.1 µM | 0.01 to 0.1 µM | 0.01 to 0.1 µM | 0.01 to 0.1 µM | 0.01 to 0.1 µM | 0.01 to 0.1 µM | 0.01 to 0.1 µM | –
6 | CCOc1ccc(F)cc1C(=O)c1oc2cnc(C)cc2c1N [Example 31] | 0.1 to 1 µM | 0.01 to 0.1 µM | > 1 µM | 0.01 to 0.1 µM | > 1 µM | 162 °C | 0.01 to 0.1 µM | 0.01 to 0.1 µM | 0.01 to 0.1 µM | 0.01 to 0.1 µM | 0.01 to 0.1 µM | – | – | 0.01 to 0.1 µM | 0.01 to 0.1 µM | 0.01 to 0.1 µM | 0.1 to 1 µM | > 1 µM
7 | Cc1ccc(OC(C)C)c(C(=O)c2oc3ccc(Cl)cc3c2N)c1 [Example 16] | 0.01 to 0.1 µM | 0.01 to 0.1 µM | 0.01 to 0.1 µM | 0.01 to 0.1 µM | > 1 µM | 110 to 112 °C | 0.01 to 0.1 µM | 0.01 to 0.1 µM | < 0.01 µM | < 0.01 µM | 0.01 to 0.1 µM | – | – | 0.01 to 0.1 µM | 0.01 to 0.1 µM | 0.01 to 0.1 µM | 0.01 to 0.1 µM | > 1 µM
8 | CCOc1ccc(Cl)cc1C(=O)c1oc2nc(C)ccc2c1N [Example 27] | 0.01 to 0.1 µM | 0.01 to 0.1 µM | 0.1 to 1 µM | 0.01 to 0.1 µM | > 1 µM | 174 to 176 °C | 0.01 to 0.1 µM | 0.01 to 0.1 µM | 0.01 to 0.1 µM | 0.01 to 0.1 µM | 0.01 to 0.1 µM | – | – | 0.01 to 0.1 µM | < 0.01 µM | 0.01 to 0.1 µM | > 1 µM | > 1 µM
9 | CCOc1ccc(N)cc1C(=O)c1oc2ccc(Cl)cc2c1N [Example 7] | 0.1 to 1 µM | 0.1 to 1 µM | > 1 µM | 0.1 to 1 µM | > 1 µM | 144 to 146 °C | 0.1 to 1 µM | 0.1 to 1 µM | – | 0.1 to 1 µM | > 1 µM | – | – | 0.1 to 1 µM | 0.1 to 1 µM | 0.1 to 1 µM | > 1 µM | > 1 µM
10 | CCOc1ccc(OC)cc1C(=O)c1oc2ccc(Cl)cc2c1N [Example 12] | 0.01 to 0.1 µM | < 0.01 µM | 0.01 to 0.1 µM | < 0.01 µM | > 1 µM | 124 to 125 °C | < 0.01 µM | 0.01 to 0.1 µM | < 0.01 µM | < 0.01 µM | < 0.01 µM | < 0.01 µM | 0.01 to 0.1 µM | < 0.01 µM | < 0.01 µM | < 0.01 µM | 0.1 to 1 µM | –
11 | CCOc1ccc(F)cc1C(=O)c1sc2ncc(N)cc2c1N [Example 116] | 0.1 to 1 µM | 0.01 to 0.1 µM | > 1 µM | 0.01 to 0.1 µM | > 1 µM | 80 °C | 0.1 to 1 µM | 0.1 to 1 µM | 0.01 to 0.1 µM | 0.01 to 0.1 µM | 0.1 to 1 µM | – | – | 0.01 to 0.1 µM | 0.01 to 0.1 µM | 0.01 to 0.1 µM | 0.01 to 0.1 µM | > 1 µM
